Residues, ends and D or L forms follow the SMILES beside them.
Columns and labels:
[1] = tested on: SCD mice; assay: Vessel wall thickness of facialis arteries of treated SCD mice; format: in vivo, mouse; conditions: KYC three weeks; P=0.10
Experimental: Vessel Wall Thickness. After completing the vasodilatation studies, the pressurized vessels were maximally dilated by addition of papaverine (10^−4 mol/L, 4 min), and outside and inside diameters recorded. An index of wall thickness was calculated using the following formula; ([…]/2)/outside diameter, as previously described.

[2] = tested on: SCD mice; assay: Immunofluorescence of aortas of treated SCD mice (chlorotyrosine, MPO); format: in vivo, mouse; conditions: KYC IP 0.3 mg/kg/d, three weeks, vs non-treated SCD mice
Experimental: Immunofluorescence Studies. In a separate study, SCD mice were treated with KYC (IP, 0.3 mg/kg/d). After three weeks treatment, mice were deeply anesthetized and euthanized by exsanguination. Thoracic and abdominal aortas were surgically removed and rinsed free of blood elements using ice cold PBS. Aortas were fixed, imbedded in paraffin, and sectioned.

[3] = tested on: OVA-sensitized C57BL/6J mice; assay: OVA-sensitized murine model of asthma (lung histology); format: in vivo, mouse; conditions: KYC 0.3 mg/kg every other day, 5 treatments
Excerpt: Murine Model of Experimentally-Induced Asthma. C57BL/6J mice (12-14 wk old) from Jackson Laboratory (Bar Harbor, Me.) were housed in sterile autoclavable microisolation cages and fed standard laboratory mouse chow and water ad libitum. All protocols were approved by the Institutional Animal Care and Use Committee (IACUC) of the Medical College of Wisconsin.
C57BL/6J mice were divided into three groups; a control group (Control), an ovalbumin (OVA)-sensitized group and an OVA-sensitized group treated with KYC. OVA sensitization was achieved using a modification of a protocol previously described by de Siqueira et al^15 (FIG. 1). […] When mice inhale aerosolized OVA, robust allergic responses are routinely observed.
Briefly, on day one, mice were anesthetized (halothane; Halocarbon Laboratories, River Edge, N.J.) and a heat-denatured OVA fragment (˜80 mg, 5×2×2 mm) was implanted subcutaneously in the dorsal aspect of the neck. The incision was closed with stainless steel clips and the mouse was allowed to recover. Implantation of the heat-denatured OVA fragment initiates sensitization. On day fifteen, the implanted mice were exposed to aerosolized OVA (6% in PBS) for 30 minutes every other day for ten days. Twenty-four hours after the last OVA challenge, the mice were deeply anesthetized (halothane), sacrificed by exsanguination and the lungs removed for analysis. […]

[4] = tested on: C57BL/6J mice; assay: Pulmonary retention of Q-dot labeled EMPs (acute lung injury); format: in vivo, mouse; conditions: pretreatment and treatment with KYC
Experimental: KYC Inhibits Acute Lung Injury. Inflammation and sepsis induce the release of endothelial cell microparticles (EMPs). Increased production of EMPs is hypothesized to play a causal role in the mechanisms mediating acute lung injury (ALI). To test this hypothesis, the inventors incubated human umbilical vein endothelial cells with PAI-1, which is well-recognized for inducing endothelial cells to generate EMPs. The EMPs were collected by ultracentrifugation, resuspended in physiological saline solution and then labeled with Q-dots. The Q-dot labeled EMPs were counted and then injected into C57BL/6J mice to achieve a final concentration of 100,000 EMPs/mL of blood. Mice were pretreated with phosphate buffered saline (FIG. 6) or KYC and then were injected with Q-dot labeled EMPs alone or Q-dot labeled EMPs plus KYC (FIG. 6).

[5] = molecular target: T1, MPO (Homo sapiens, UniProt P05164); assay: MPO-mediated LDL malondialdehyde (MDA) formation; format: biochemical; set-up: purchased Lee Biosolutions (St. Louis, Mo.); conditions: increasing concentrations; 37° C., 4 h
T1 sequence (P05164 49-745): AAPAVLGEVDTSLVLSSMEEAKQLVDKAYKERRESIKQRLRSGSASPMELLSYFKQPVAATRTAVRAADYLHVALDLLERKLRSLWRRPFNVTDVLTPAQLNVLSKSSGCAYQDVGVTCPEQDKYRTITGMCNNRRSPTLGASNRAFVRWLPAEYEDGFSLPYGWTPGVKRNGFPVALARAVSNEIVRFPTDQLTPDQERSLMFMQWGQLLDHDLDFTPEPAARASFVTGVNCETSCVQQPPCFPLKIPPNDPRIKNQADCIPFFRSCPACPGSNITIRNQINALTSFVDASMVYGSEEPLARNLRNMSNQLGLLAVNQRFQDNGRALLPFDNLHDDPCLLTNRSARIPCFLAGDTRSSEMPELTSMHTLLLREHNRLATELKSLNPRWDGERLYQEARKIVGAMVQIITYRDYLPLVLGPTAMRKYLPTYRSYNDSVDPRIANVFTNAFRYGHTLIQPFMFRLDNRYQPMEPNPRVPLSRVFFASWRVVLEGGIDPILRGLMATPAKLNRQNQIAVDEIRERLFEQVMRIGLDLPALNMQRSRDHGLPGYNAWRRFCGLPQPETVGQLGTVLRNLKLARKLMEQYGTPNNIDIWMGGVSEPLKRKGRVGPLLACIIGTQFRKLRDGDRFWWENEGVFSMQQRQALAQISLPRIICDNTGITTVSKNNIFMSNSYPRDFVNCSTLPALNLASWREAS
Experimental: MPO-mediated LDL Malondialdehyde (MDA) Formation: Reaction mixtures contained LDL (0.5 mg/mL), NaNO2 (50 μM), H2O2 (50 μM), MPO (50 nM) and increasing concentrations of KYC in a phosphate buffer (100 mM, pH 7.4) containing DTPA (100 μM). After incubation at 37° C. for 4 h, the reactions were stopped by addition of catalase (2,000 units/mL). The formation of MDA was determined according to a published procedure. Briefly, incubation mixtures (containing 25 mM BHT) were adjusted to pH 1.5 and incubated at 60° C. for 80 min to hydrolyze the Schiff Bases formed from MDA and protein. The samples were mixed with 3-fold volume of N-methyl-2-phenylindole (13.4 mM in acetonitrile/methanol (3:1)). After centrifugation (13000 g, 5 min) 330 μL of the supernatants were mixed with 57.5 μL of concentrated HCl and incubated at 45° C. for another 60 min. Finally, after centrifugation (13000 g, 5 min), total MDA in the samples was determined from the absorbance at 586 nm using a UV-Vis spectrophotometer (Agilent Model 8453).

CC(=O)N[C@@H](CCCCN)C(=O)N[C@@H](Cc1ccc(O)cc1)C(=O)N[C@@H](CS)C(N)=O [KYC, N-acetyl Lysyltyrosylcysteine Amide] (Ac-Lys-Tyr-Cys-NH2)
Vessel wall thickness (in words) [1]: reduces vessel wall thickness
Chlorotyrosine levels in aortas (in words) [2]: reduced
MPO levels in aortas (in words) [2]: reduced
Eosinophil infiltration in the lungs (in words) ([3]; H&E): markedly reduce eosinophil infiltration to essentially control levels
Collagen deposition in the lungs (in words) ([3]; trichrome): markedly reduces collagen deposition to control levels
Pulmonary retention of Q-dot labeled EMPs (in words) [4]: dramatically decreases
MPO-mediated MDA formation in LDL (in words) [5]: dose-dependently inhibited

From US8937039B2, “Peptide-based peroxidase inhibitors and methods of using same” (The Medical College of Wisconsin, Inc., priority 2009, dated 2015)
